In US20230365563A1, “QUINAZOLINE COMPOUND AND APPLICATION THEREOF” (SHANGHAI PHARMACEUTICALS HOLDING CO., LTD., priority 2020, published 2023):
Counter-ions that a name gives are not always drawn.

Target: T1, KRAS-G12D and SOS1 (Homo sapiens, UniProt P01116, G12D)
T1 construct: purchased
Test: Inhibition of KRAS-G12D/SOS1 binding (Cisbio binding kit, 665/615 ratio), Effect Embodiment A
Conditions: read-out: GTP-KRAS-G12D:SOS1 IC50
Method: Similarly, the first dilution point of the compound to be tested was its storage solution, and the solution was 3-fold diluted, with 11+0 points of dilution. Echo was used to transfer 0.2 μL gradient diluted solution of the compounds into a 384-well plate, with 2 duplicated wells for each compound, and the final concentration of DMSO was 1%. The solution was centrifuged for 1 min at 1000 rpm/min.
IC50 of the compounds was fitted by Graphpad Prism 8 nonlinear regression equation: […]
The IC50 (half inhibitory concentration) of the compound was obtained by using the following nonlinear fitting formula: […]

T1 sequence (P01116 1-188 isoform P01116-2 G12D): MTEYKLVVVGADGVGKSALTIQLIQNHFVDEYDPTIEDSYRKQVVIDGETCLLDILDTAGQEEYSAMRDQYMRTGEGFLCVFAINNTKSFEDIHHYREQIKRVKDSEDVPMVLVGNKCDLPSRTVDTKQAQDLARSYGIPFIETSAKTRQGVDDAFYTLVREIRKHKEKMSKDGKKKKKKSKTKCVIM

Row | SMILES | IC50 [µM]
1 | CCc1cccc2cc(O)cc(-c3c(F)cc4c(N5CC6CCC(C5)N6)nc(OCCCN5C6CCC5COC6)nc4c3F)c12 (single isomer, unassigned) [Compound 271b, 4-((7R or 7S)-2-(3-(3-oxa-8-azabicyclo[3.2.1]octan-8-yl)propoxy)-4-((1R,5S)-3,8-diazabicyclo[3.2.1]octan-3-yl)-6,8-difluoroquinazolin-7-yl)-5-ethylnaphthalen-2-ol diformate] | 9.41
2 | Oc1cc(-c2c(Cl)cc3c(N4CC5CCC(C4)N5)nc(OCC(F)CN4C5CCC4COC5)nc3c2F)c2ccccc2c1 (single isomer, unassigned) [Compound 179a, ((4R or 4S)-4-(2-((2R or 2S)-3-(3-oxa-8-azabicyclo[3.2.1]octan-8-yl)-2-fluoropropoxy)-4-((1R,5S)-3,8-diazabicyclo[3.2.1]octan-3-yl)-6-chloro-8-fluoroquinazolin-7-yl)naphthalen-2-ol diformate] | 0.276
3 | CN(C)CCCSc1nc(N2C[C@H]3CC[C@@H](C2)N3)c2cc(Cl)c(-c3cc(O)cc4ccccc34)c(F)c2n1 (single isomer, unassigned) [Compound 147, (S or R) 4-(4-((1R,5S)-3,8-diazabicyclo[3.2.1]octan-3-yl)-6-chloro-2-((3-(dimethylamino)propyl)thio)-8-fluoroquinazolin-7-yl)naphthalen-2-ol dihydrochloride] | 0.605
4 | CN(C)C1CN(c2nc(N=S3(=O)CCC(N)CC3)c3cc(Cl)c(-c4cc(O)cc5ccccc45)c(F)c3n2)C1 (single isomer, unassigned) [Compound 72a, (4R or S)-4-amino-1-(((R or S)-6-chloro-2-(3-(dimethylamino)azetidin-1-yl)-8-fluoro-7-(3-hydroxynaphthalen-1-yl)quinazolin-4-yl)imino)hexahydro-1-thiopyran 1-oxide] | > 200
5 | C[C@H]1CCCN1CCCOc1nc(N2CC3CCC(C2)N3)c2cc(Cl)c(-c3cc(O)cc4ccccc34)c(F)c2n1 (single isomer, unassigned) [Compound 108b, 4-((S or R)-4-((1R,5S)-3,8-diazabicyclo[3.2.1]octan-3-yl)-6-chloro-8-fluoro-2-(3-((S)-2-methylpyrrolidin-1-yl)propoxy)quinazolin-7-yl)naphthalen-2-ol dihydrochloride] | 0.108
6 | CN(C)C1CN(c2nc(N3CC4CCC(C3)N4)c3cc(Cl)c(-c4cc(O)cc5cccnc45)c(F)c3n2)C1 (single isomer, unassigned) [Compound 45a, 8-((S or R)-4-((1R,5S)-3,8-diazabicyclo[3.2.1]octan-3-yl)-6-chloro-2-(3-(dimethylamino)azetidin-1-yl)-8-fluoroquinazolin-7-yl)quinolin-6-o1] | 1.26
7 | CN1CCCC[C@H]1COc1nc(N2CC3CCC(C2)N3)c2cc(Cl)c(-c3cc(O)cc4ccccc34)c(F)c2n1 (single isomer, unassigned) [Compound 56b, 4-((R or S)-4-((1R,5S)-3,8-diazabicyclo[3.2.1]octan-3-yl)-6-chloro-8-fluoro-2-((S)-1-methylpiperidin-2-yl)methoxy)quinazolin-7-yl)naphthalen-2-ol dihydrochloride] | 15.7
8 | CN(C)C1CN(c2nc(N3C[C@H]4CNC[C@H]4C3)c3cc(Cl)c(-c4cc(O)cc5ccccc45)c(F)c3n2)C1 (single isomer, unassigned) [Compound 13a, (R or S)-4-(6-chloro-2-(3-(dimethylamino)azetidin-1-yl)-8-fluoro-4-((3aR,6aS)-hexahydro-pyrrolo[3,4-c]pyrrol-2 (1H)-yl)quinazolin-7-yl)naphthalen-2-ol] | 2.24
9 | C#Cc1c(F)ccc2cc(O)cc(-c3c(Cl)cc4c(N5CC6CCC(C5)N6)nc(OCCCN5C6CCC5COC6)nc4c3F)c12 (single isomer, unassigned) [Compound 255a, (4S or 4R)-4-(2-(3-(3-oxa-8-azabicyclo[3.2.1]octan-8-yl)propoxy)-4-(1R,5S)-3,8-diazabicyclo[3.2.1]octan-3-yl)-6-chloro-8-fluoroquinazolin-7-yl)-5-ethynyl-6-fluoronaphthalen-2-ol diformate] | 5.12
10 | CN1CCC[C@H]1COc1nc(N2CC3NC(C2)C2CC32)c2cnc(-c3cc(O)cc4ccccc34)c(F)c2n1 (stereo partly drawn) [Compound 158, 4-(8-Fluoro-2-((S)-1-methylpyrrolidin-2-yl)methoxy)-4-((1R,2R,4S,5S)-7,9-diazatricyclo[3.3.1.0^2,4]nonan-7-yl)pyridinyl[4,3-d]pyrimidin-7-yl)naphthalen-2-ol diformate] | 0.199
11 | C#Cc1cccc2cc(O)cc(-c3c(F)cc4c(N5CC6CCC(C5)N6)nc(OCCCN5C6CCC5COC6)nc4c3F)c12 (single isomer, unassigned) [Compound 273b, 4-((7R or 7S)-2-(3-(3-oxa-8-azabicyclo[3.2.1]octan-8-yl)propoxy)-4-((1R,5S)-3,8-diazabicyclo[3.2.1]octan-3-yl)-6,8-difluoroquinazolin-7-yl)-5-ethynylnaphthalen-2-ol diformate] | 1.85
12 | CN1CCN(c2nc(N3CC4CCC(C3)N4)c3cc(Cl)c(-c4cc(O)cc5ccccc45)c(F)c3n2)CC1 (single isomer, unassigned) [Compound 52b, 4-((R or S)-4-((1R,5S)-3,8-diazabicyclo[3.2.1]octan-3-yl)-6-chloro-8-fluoro-2-(4-methylpiperazin-1-yl)quinazolin-7-yl)naphthalen-2-ol] | 73.9
13 | CN1CCC1CCOc1nc(N2CC3CCC(C2)N3)c2cc(Cl)c(-c3cc(O)cc4ccccc34)c(F)c2n1 (single isomer, unassigned) [Compound 112b, 4-((S or R)-4-((1R,5S)-3,8-diazabicyclo[3.2.1]octan-3-yl)-6-chloro-8-fluoro-2-(2-((R or S)-1-methylazetidin-2-yl)ethoxy)quinazolin-7-yl)naphthalen-2-ol carboxylate] | 0.12
14 | CN(C)C1CN(c2nc(C3CCNCC3)c3cc(Cl)c(-c4cc(O)cc5ccccc45)c(F)c3n2)C1 [Compound 20a, (R or S)-4-(6-chloro-2-(3-(dimethylamino)azetidin-1l-yl)-8-fluoro-4-(piperidin-4-yl)quninazolin-7-yl)naphthalen-2-ol] | 4.8
15 | CNCCN(C)c1nc(N2CC(N(C)C)C2)nc2c(F)c(-c3cc(O)cc4ccccc34)c(Cl)cc12 (single isomer, unassigned) [Compound 16b, (S or R)-4-(6-chloro-2-(3-(dimethylamino)azetidin-1-yl)-8-fluoro-4-(methyl(2-(methylamino)ethyl)amino)quinazolin-7-yl)naphthalen-2-ol] | 83.4
16 | CN(C)C1CN(c2nc(C3CNC3)c3cc(Cl)c(-c4cc(O)cc5ccccc45)c(F)c3n2)C1 (single isomer, unassigned) [Compound 21a, (S or R)-4-(4-(azetidin-3-yl)-6-chloro-2-(3-(dimethylamino)azetidin-1-yl)-8-fluoroquinazolin-7-yl)naphthalen-2-ol bistrifluoroacetate] | 1.28
17 | CN(C)C1CN(c2nc(N=S3(=O)CCC(N)CC3)c3cc(Cl)c(-c4cc(O)cc5ccccc45)c(F)c3n2)C1 (single isomer, unassigned) [Compound 72d, (4S or R)-4-amino-1-(((S or R)-6-chloro-2-(3-(dimethylamino)azetidin-1-yl)-8-fluoro-7-(3-hydroxynaphthalen-1-yl)quinazolin-4-yl)imino)hexahydro-1-thiopyran 1-oxide] | 176
18 | CCc1cccc2cc(O)cc(-c3c(F)cc4c(N5CC6CCC(C5)N6)nc(OC[C@H](C)CN5C6CCC5COC6)nc4c3F)c12 (single isomer, unassigned) [Compound 284b, (4R or 4S)-4-(2-((2R)-3-(3-oxa-8-azabicyclo[3.2.1]octan-8-yl)-2-methylpropoxy)-4-((1R,5S)-3,8-diazabicyclo[3.2.1]octan-3-yl)-6,8-difluoroquinazolin-7-yl)-5-ethylnaphthalen-2-o1 dihydrochloride] | 2.01
19 | CN(C)C1CN(c2nc(N3C[C@H]4CC[C@@H](C3)N4)c3cc(Cl)c(-c4cc(O)cc5ccccc45)c(F)c3n2)C1 (single isomer, unassigned) [Compound 5b, (S or R)-4-(4-((1R,5S)-3,8 diazabicyclo [3.2.1]octan-3-yl)-6-chloro-2-(3-(dimethylamino)azetidin-1-yl)-8-fluoro-quinazolin-7-yl)naphthalen-2-ol] | 63.3
20 | CNCCN(C)c1nc(N2CC(N(C)C)C2)nc2c(F)c(-c3cc(O)cc4ccccc34)c(Cl)cc12 (single isomer, unassigned) [Compound 16a, (R or S)-4-(6-chloro-2-(3-(dimethylamino)azetidin-1-yl)-8-fluoro-4-(methyl(2-(methylamino)ethyl)amino)quinazolin-7-yl)naphthalen-2-ol] | 3.49
21 | CN(C)C1CN(c2nc(C3(C(N)=O)CNC3)c3cc(Cl)c(-c4cc(O)cc5ccccc45)c(F)c3n2)C1 (single isomer, unassigned) [Compound 22b, (R or S)-3-(6-chloro-2-(3-(dimethylamino)azetidin-1-yl)-8-fluoro-7-(3-hydroxynaphthalen-1-yl)quinazolin-4-yl)azetidin-3-carboxamide bistrifluoroacetate] | 2.42
22 | Oc1cc(-c2c(Cl)cc3c(N4CC5CCC(C4)N5)nc(OCCCN4CCC4)nc3c2F)c2ccccc2c1 (single isomer, unassigned) [Compound 59b, 4-((R or S)-2-(3-(azetidin-1-yl)propoxy)-4-((1R,5S)-3,8-diazabicyclo[3.2.1]octan-3-yl)-6-chloro-8-fluoroquinazolin-7-yl)naphthalen-2-ol] | 5.98
